Assay [1] has as its target T1, human Kv1.5 (Homo sapiens, UniProt P22460).
T1 construct: expressed in transfected cells
The assay can be described thus: Kv1.5 Rb+ Efflux Assay. The format is cell-based. The following applies: inhibition of 86Rb+ efflux through Kv1.5; cells stably transfected with human Kv1.5; 10 point concentration response curves n=2; normalised to 2.5mM 4 amino-pyridine block. Here is the method:
The pore of a potassium channel is permeable to other monovalent cations such as Rb^+ and Tl^+. Analysis of cellular efflux of potassium channel permeable ions enables potassium channel activity to be monitored directly. Cells stably transfected with cDNA for human Kv1.5 (in pEF6::VA-His-TOPO) were grown in Dulbecco's Modified Eagle media (DMEM) alpha supplemented with 10% Fetal Calf Serum (FCS), 20 µl/ml penicillin (5000U/ml) streptomycin (5000µg/ml), 10µl/ml [100x] glutamine, and blasticidin (7.5µg/ml). Cells were dispensed into 96 well cellstar TC plates and allowed to grow until a confluent monolayer was visible. On the morning of the assay run, cold media was aspirated using the TECAN plate washer, and a 50µl media spike containing 2µCi/ml (37kBq/ml) ^86Rb^+ added to each well containing cells using the Shallow-Well Matrix Platemate. Plates were placed in a incubator at 37°C for a minimum of 3 hours. Unloaded ^86Rb^+ in the "hot" media was aspirated and each well washed 4x250µl with Earls Balanced Salt Solution (EBSS) which contained 5mM KCl, 140mM NaCl, 2mM CaCl2, 1mM MgSO4, 10mM HEPES, and 5mM glucose, pH 7.4, 290-300 mOsm. These cells were then pre-incubated with 50µl of EBSS +/- test compounds for 10 minutes at room temperature. After the 10 minute incubation, 50µl of modified EBSS which contained 145mM KCl, 2mM CaCl2, 1mM MgSO4, 10mM HEPES, 5mM glucose, pH 7.4, 290-300 mOsm, was added, and the cells were incubated for a further 10 minutes at room temperature. The high KCl EBSS was used to depolarise cells to a membrane potential that would activate Kv1.5 channels. After the final incubation 80µl/100µl of the reaction from each well was transferred to equivalent wells in a Packard "Optiplate" white 96 well plate and counted in a Packard TopCount liquid scintillation counter by Cerenkov emission. Percentage inhibition ^86Rb^+ efflux through Kv1.5 was calculated by normalisation to 2.5mM 4 amino-pyridine control block of Kv1.5. Alternatively cells were loaded with ^85Rb^+ and quantified by atomic absorption spectroscopy. IC50 determinations were derived from 10 point concentration response curves n=2 using the method described above. Data was fitted as variable slope sigmoidal fit using Graphpad Prism (V3.02) software.

Assay [2] has as its target hKv1.5 (Homo sapiens, UniProt P22460). The assay can be described thus: Kv1.5 Autopatch Electrophysiology (whole cell patch-clamp). It is filed as cell-based. The settings on record: compound at 1µM, room temperature (22-24°C), held at -80mV, step to 0mV for 1000ms, total charge measured. Here is the method: The external bathing solution contained (in mM): 150 NaCl, 10 KCl, […], 3 MgCl2, 1 CaCl2, 10 HEPES, pH 7.4. Patch pipettes were filled with an electrode solution of composition (in mM): 160 KCl, 0.5 MgCl2, 10 HEPES, 1 EGTA, pH 7.4 with KOH.
Compounds were dissolved in DMSO (100 %) and made up in the external bather at a concentration of 1µM. All experiments were conducted at room temperature (22-24°C).
A cell suspension (10 ml), with a density of 100,000 cells/ml, was aliquoted into a 15ml centrifuge tube and transferred to an incubator (37°C, 5% CO2) for approximately one hour before use. Following 60 min incubation, a tube was taken and centrifuged at 1000 rpm for 4 mins at room temperature. 9.5 ml supernatant was thence discarded, leaving a cell pellet at the bottom of the tube. The pellet was then resuspended using 100 µl of cold (4 °C), filtered (0.22 µm), 0.2 % BSA/bather solution (0.02g BSA/10ml bather). The bottom of the tube was manually agitated gently until the solution became cloudy with cells. The 100 µl cell resuspension solution was then stored on the bench at 4 °C (using a Peltier-based temperature control device) until used.
A length of capillary glass (1B150F-4, WPI) was dipped into the cell suspension solution, such that - 3 cm column of fluid was taken up by capillary action. A Ag/AgCl wire was dropped into the non-dipped end of the capillary also. The outside of the solution-filled end of the capillary was then dried and the capillary was loaded into the AutoPatch™. Borosilicate glass patch pipettes (from 1.5mm OD, thin-walled filamented, GC150-TF capillary glass, Harvard) were pulled using a DMZ pipette puller (Zeitz Instruments), and were back-filled using the internal pipette solution, being careful that no bubbles remain at the tip or in the body of the pipette. Patch pipettes typically had resistances of 2.3-3.5 MΩ. Once filled, the pipette tip and a proportion of the shaft (- 15 mm) were dipped into Sigmacote (Sigma). The recording pipette was then loaded into the AutoPatch™.
Automated patch-clamping was initiated by the operator, but thereafter AutoPatch.exe continued the experiment providing that pre-set conditions and criteria were satisfied.
Whole cell patch-clamp recordings were made using the AutoPatch™ rig, which incorporated an EPC9 amplifier (HEKA, Germany) under control of Pulse software (v8.54, HEKA, Germany), a motion controller with 2 translators (Newport, UK), valve controller (VF1) and a c-level suction device all at room temperature (22-24°C). This equipment was completely under the control of AutoPatch.exe and operator intervention was only made when there was a requirement to refill the drug reservoirs or to prevent the loss of a cell due to a technical error. Cells with an Rseries greater than 18 MΩ were discounted from the experiment.
Qualification stages prior to perfusion and drug application ensured that the observed current met the criteria for the experiment. Only those cells with an IK > 500 pA were used for experiments. Cells were continuously perfused with external solution at a flow rate of 1.8-2 ml/minute. […] Online analysis of the hKv1.5 current during the application of compounds was performed by the AutoPatch™ software. Voltage-step protocols and analysis of data was performed as described for conventional electrophysiology.
Electrophysiology voltage-step protocols and analysis of data was performed as follows. Data was sampled at 5kHz, and filtered with a -3 dB bandwidth of 2.5kHz. Cells were held at a voltage of -80mV. Currents were evoked to a voltage step for 1000ms in duration at 0mV every 5s. Currents were analysed using Pulsefit software (v8.54, HEKA, Germany), with the total charge measured during the whole of the voltage step. All other plots were produced using Igor Pro (WaveMetrics).
Background: The patch-clamp technique gives a direct electrical read-out from membranes.

Bounds are passed on as bounds.

Experimental findings from patent EP1641803B1, “THIENOPYRIMIDINE DERIVATIVES AS POTASSIUM CHANNEL INHIBITORS” (Xention Limited, priority 2003, dated 2004) are described below.

Sequence of hKv1.5 (P22460 whole entry): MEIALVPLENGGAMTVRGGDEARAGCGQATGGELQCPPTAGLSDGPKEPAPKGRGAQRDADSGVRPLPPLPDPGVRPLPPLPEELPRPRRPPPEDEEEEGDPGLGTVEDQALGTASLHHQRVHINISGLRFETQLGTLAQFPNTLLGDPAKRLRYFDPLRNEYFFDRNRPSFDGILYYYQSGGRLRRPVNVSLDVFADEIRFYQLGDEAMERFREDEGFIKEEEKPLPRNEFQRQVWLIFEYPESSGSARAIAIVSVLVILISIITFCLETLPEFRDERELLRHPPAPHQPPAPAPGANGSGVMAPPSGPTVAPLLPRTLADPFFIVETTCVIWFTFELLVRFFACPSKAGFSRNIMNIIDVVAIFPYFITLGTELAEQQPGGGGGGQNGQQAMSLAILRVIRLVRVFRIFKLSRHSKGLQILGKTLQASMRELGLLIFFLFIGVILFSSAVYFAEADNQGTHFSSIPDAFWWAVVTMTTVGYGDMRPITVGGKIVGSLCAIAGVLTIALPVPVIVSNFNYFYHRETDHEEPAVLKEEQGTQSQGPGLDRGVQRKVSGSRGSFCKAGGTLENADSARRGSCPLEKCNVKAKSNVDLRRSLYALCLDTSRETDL
T1 sequence (P22460 whole entry): as above

The IC50 is the concentration needed to halve the response being measured. Low readings indicate higher potency, high ones lower potency. What is called inhibition is the drop in the measured response relative to a control, in per cent. Low values mean a weak effect, high ones a strong effect. On to `C=CCNc1ncnc2scc(-c3cccs3)c12` [Example 99, Allyl-(5-thiophen-2-yl-thieno[2,3-d]pyrimidin-4-yl)-amine], for which the half-maximal inhibitory concentration (IC50) in assay [1] stood at 7.53 µM. The same compound came in with an inhibition at 1 µM in assay [2] of 17.5%.
As to `CN(Cc1ccco1)c1ncnc2scc(-c3cccs3)c12` [Example 100, Furan-2-ylmethyl-methyl-(5-thiophen-2-yl-thieno[2,3-d]pyrimidin-4-yl)-amine], the 50% inhibitory concentration (IC50) in assay [1] turned out to be 9.71 µM. This compound returned an inhibition at 1 µM in assay [2] of 19.9%.
The corresponding values for `CN(C)C(=O)CNc1ncnc2scc(-c3ccccc3)c12` [Example 103, N,N-Dimethyl-2-(5-phenyl-thieno[2,3-d]pyrimidin-4-ylamino)-acetamide] are more than 30 µM and 13.6%.
In the case of `c1ccc(-c2csc3ncnc(NCc4ccccn4)c23)cc1` [Example 105, (5-Phenyl-thieno[2,3-d]pyrimidin-4-yl)-pyridin-2-ylmethyl-amine], the half-maximal inhibitory concentration (IC50) in assay [1] is 0.28 µM. The same compound came in with an inhibition at 1 µM in assay [2] of 63%.
Compound `c1ccc(-c2csc3ncnc(OCc4ccccn4)c23)cc1` [Example 106, 5-Phenyl-4-(pyridin-2-ylmethoxy)-thieno[2,3-d]pyrimidine] returned a concentration for half-maximal inhibition (IC50) in assay [1] of 0.33 µM. This compound also showed an inhibition at 1 µM in assay [2] of 21.9%.
In turn, `c1ccc(-c2csc3ncnc(NCc4ccoc4)c23)cc1` [Example 107, Furan-3-ylmethyl-(5-phenyl-thieno[2,3-d]pyrimidin-4-yl)-amine] had a concentration for half-maximal inhibition (IC50) in assay [1] of 1.05 µM. Besides, testing at 1 µM in assay [2] gave an inhibition of 25.3%.
`Cc1ccc(CNc2ncnc3scc(-c4ccccc4)c23)o1` [Example 108, (5-Methyl-furan-2-ylmethyl)-(5-phenyl-thieno[2,3-d]pyrimidin-4-yl)-amine] came in with a concentration for half-maximal inhibition (IC50) in assay [1] of 0.41 µM. Moreover, in assay [2], the inhibition at 1 µM was 37.2%.
Take `c1ccc(-c2csc3ncnc(OCc4ccco4)c23)cc1` [Example 109, 4-(Furan-2-ylmethoxy)-5-phenyl-thieno[2,3-d]pyrimidine]: the IC50 in assay [1] worked out at 0.8 µM. Further, testing at 1 µM in assay [2] gave an inhibition of 52.3%.
The corresponding values for `Cn1cccc1CNc1ncnc2scc(-c3ccccc3)c12` [Example 110, (1-Methyl-1H-pyrrol-2-ylmethyl)-(5-phenyl-thieno[2,3-d]pyrimidin-4-yl)-amine] are 3.9 µM and 14.2%.
By % Inhibition is commonly meant how much of the control response was suppressed. High values mean strong suppression, low ones little suppression. In assay [1], `c1ccc(-c2csc3ncnc(NCCc4ccccn4)c23)cc1` [Example 111, (5-Phenyl-thieno[2,3-d]pyrimidin-4-yl)-(2-pyridin-2-yl-ethyl)-amine] returned an IC50 of 4.49 µM. For the same compound, in assay [2], testing at 1 µM gave an inhibition of 40% and the “% Inhibition at 1µM” value was 22.2%.
Take `COC(=O)CNc1ncnc2scc(-c3ccccc3)c12` [Example 112, (5-Phenyl-thieno[2,3-d]pyrimidin-4-ylamino)-acetic acid methyl ester]: the IC50 in assay [1] came to 5.03 µM. The same compound gave an inhibition at 1 µM in assay [2] of 43.5%.
On to `c1csc(CNc2ncnc3scc(-c4cccs4)c23)c1` [Example 115, Thiophen-2-ylmethyl-(5-thiophen-2-yl-thieno[2,3-d]pyrimidin-4-yl)-amine], for which, in assay [1], half-maximal inhibition (IC50) required 7.07 µM. The “% Inhibition at 1µM” value in assay [2] amounted to 45.9%.
`c1ccc(-c2csc3ncnc(SCc4ccco4)c23)cc1` [Example 117, 4-(Furan-2-ylmethylsulfanyl)-5-phenyl-thieno[2,3-d]pyrimidine] registered a half-inhibitory concentration (IC50) in assay [1] of 9.37 µM. Further, in assay [2], the inhibition at 1 µM amounted to 43.6% and the “% Inhibition at 1µM” value was 57.2%.
`c1ccc(-c2csc3ncnc(NCCc4cccs4)c23)cc1` [Example 118, (5-Phenyl-thieno[2,3-d]pyrimidin-4-yl)-(2-thiophen-2-yl-ethyl)-amine]: the IC50 in assay [1] turned out to be 8.56 µM. This compound came in with an inhibition at 1 µM in assay [2] of 15.8%.
Regarding `c1ccc(COc2ncnc3scc(-c4ccccc4)c23)cc1` [Example 119, 4-Benzyloxy-5-phenyl-thieno[2,3-d]pyrimidine], in assay [1], 5.79 µM corresponded to half-maximal inhibition (IC50). For the same compound, in assay [2], the inhibition at 1 µM is 44.1%.
In the same order, the values of `c1ccc(-c2csc3ncnc(SCc4ccccn4)c23)cc1` [Example 120, 5-Phenyl-4-(pyridin-2-ylmethylsulfanyl)-thieno[2,3-d]pyrimidine] are 12.7 µM and 25%.
On to `Cc1ccc(-c2csc3ncnc(NCc4ccccn4)c23)nc1` [Example 121, [5-(5-Methyl-pyridin-2-yl)-thieno[2,3-d]pyrimidin-4-yl]-pyridin-2-ylmethyl-amine], for which the IC50 in assay [1] turned out to be 2.09 µM. In assay [2], this compound had an inhibition at 1 µM of 82.6%.
The corresponding values for `Cc1ccc(-c2csc3ncnc(NCc4ccco4)c23)nc1` [Example 122, Furan-2-ylmethyl-[5-(5-methyl-pyridin-2-yl)-thieno[2,3-d]pyrimidin-4-yl]-amine] are 3.53 µM and 36.3%.
In the same order, the values of `Cc1ccc(-c2csc3ncnc(NCc4ccco4)c23)cc1` [Example 126, Furan-2-ylmethyl-(5-p-tolyl-thieno[2,3-d]pyrimidin-4-yl)-amine] are 0.47 µM and 83.4%.
In the case of `COc1ccc(CCNc2ncnc3scc(-c4ccc(C)cc4)c23)cc1OC` [Example 127, [2-(3,4-Dimethoxy-phenyl)-ethyl]-(5-p-tolyl-thieno[2,3-d]pyrimidin-4-yl)-amine], in assay [1], the IC50 was 5.3 µM. For the same compound, the inhibition at 1 µM in assay [2] worked out at 20.7%.
`Cc1ccc(-c2csc3ncnc(NCCN4CCNC4=O)c23)cc1` [Example 128, 1-[2-(5-p-Tolyl-thieno[2,3-d]pyrimidin-4-ylamino)-ethyl]-imidazolidin-2-one] came in with an IC50 in assay [1] of more than 30 µM. This compound also came in with an inhibition at 1 µM in assay [2] of 25%.
The corresponding values for `Cc1ccc(-c2csc3ncnc(Oc4ccc5ccccc5c4)c23)cc1` [Example 129, 4-(Naphthalen-2-yloxy)-5-p-tolyl-thieno[2,3-d]pyrimidine] are more than 30 µM and 47.4%.
